Drawing on US9371292B2, “Quinazoline derivative, preparation method therefor, intermediate, composition and application thereof” (SHANGHAI PHARMACEUTICALS HOLDINGS CO., LTD., priority 2011, dated 2016), this text covers IC50 for 21 compounds.

One assay concerns A431 cell. The assay is described as follows: Proliferation inhibition, A431 cells (CellTiter-Glo). The assay is classed as cell-based. The note with it: Homo sapiens, A-431, 48 hours. Here is the method: (§1) This example is to determine the proliferation inhibitory activity against wide type of high expression cell lines A431 of EGFR and mutant cell lines NCI-H1975^L858RT790M, the proliferation inhibitory activity in cell-based level of compound is expressed by IC50. The test method is as follows: both cell lines are purchased from American type culture collection (ATCC). The cells are seeded in a white and opaque 384-well culture plate with a proper concentration (A431: 20000 cells/ml medium; H1975: 15000 cells/ml medium), cultured at 37° C. with 5% CO2 for 24 hrs, a series of medicine with gradient concentration is added, generally 10 concentrations, cultured for another 48 hours under the previous conditions. The assays of the proliferation inhibitory activity against the A431 and H1975 cell of the test compounds are performed by the CellTiter-Glo Luminescent Cell Viability Assay and calculate the proliferation inhibitory activity of compound with different concentrations. CellTiter-Glo Luminescent Cell Viability Assay is purchased from Promega. Fit the data of proliferation inhibitory activity against A431 and H1975 of compounds with different concentrations with 4-parameter equation.
Background: Cellular ATP, detected with luciferase, serves as a proxy for viable cell number.

Assay [1] deals with NCI-H1975 L858R T790M cell. The assay is described as follows: Proliferation inhibition, H1975 cells (CellTiter-Glo). The assay is classed as cell-based. The note with it: Homo sapiens, 48 hours. As for the experimental part:
as §1

The target of another assay is T1, EGFR tyrosine kinase (Homo sapiens, UniProt P00533).
T1 construct: purchased Sigma Aldrich
The assay is described as follows: HTRF assay, inhibition of EGFR tyrosine kinase. The assay is classed as biochemical. The note with it: HTRF method. Here is the method: The activity of inhibitory against the kinase of the test compound is expressed by IC50. The assays are performed by Homogeneous time-resolved fluorescence (HTRF) method which is as follows: a series of synthesized analogues with gradient concentration are incubated for 5 minutes in enzymatic solution with specific concentration (for EGFR) at room temperature. Then proper amount of substrate and ATP are added into the reaction mixture to start the enzyme reaction. The assays of the specific concentration of compound is measured by Flexstation III of Molecular device company after the stop buffer and detecting liquid are added to the enzyme reaction system and hatch at room temperature for 1 hour. And the activity of inhibitory against the kinase of the test compound with different concentration will be calculated, then according to the 4-parameter equation, fit the inhibitory activity of the test compound with different concentration to get the IC50. EGFR is purchased from Sigma Aldrich. The HTRF KinEASE-TK is purchased from Cisbio Bioassays. ATP is purchased from Sigma Aldrich.
(In general: Time-resolved FRET reads energy transfer from a long-lived donor to a nearby acceptor.)

SMILES strings stand for the structures.

T1 sequence (P00533 25-1210): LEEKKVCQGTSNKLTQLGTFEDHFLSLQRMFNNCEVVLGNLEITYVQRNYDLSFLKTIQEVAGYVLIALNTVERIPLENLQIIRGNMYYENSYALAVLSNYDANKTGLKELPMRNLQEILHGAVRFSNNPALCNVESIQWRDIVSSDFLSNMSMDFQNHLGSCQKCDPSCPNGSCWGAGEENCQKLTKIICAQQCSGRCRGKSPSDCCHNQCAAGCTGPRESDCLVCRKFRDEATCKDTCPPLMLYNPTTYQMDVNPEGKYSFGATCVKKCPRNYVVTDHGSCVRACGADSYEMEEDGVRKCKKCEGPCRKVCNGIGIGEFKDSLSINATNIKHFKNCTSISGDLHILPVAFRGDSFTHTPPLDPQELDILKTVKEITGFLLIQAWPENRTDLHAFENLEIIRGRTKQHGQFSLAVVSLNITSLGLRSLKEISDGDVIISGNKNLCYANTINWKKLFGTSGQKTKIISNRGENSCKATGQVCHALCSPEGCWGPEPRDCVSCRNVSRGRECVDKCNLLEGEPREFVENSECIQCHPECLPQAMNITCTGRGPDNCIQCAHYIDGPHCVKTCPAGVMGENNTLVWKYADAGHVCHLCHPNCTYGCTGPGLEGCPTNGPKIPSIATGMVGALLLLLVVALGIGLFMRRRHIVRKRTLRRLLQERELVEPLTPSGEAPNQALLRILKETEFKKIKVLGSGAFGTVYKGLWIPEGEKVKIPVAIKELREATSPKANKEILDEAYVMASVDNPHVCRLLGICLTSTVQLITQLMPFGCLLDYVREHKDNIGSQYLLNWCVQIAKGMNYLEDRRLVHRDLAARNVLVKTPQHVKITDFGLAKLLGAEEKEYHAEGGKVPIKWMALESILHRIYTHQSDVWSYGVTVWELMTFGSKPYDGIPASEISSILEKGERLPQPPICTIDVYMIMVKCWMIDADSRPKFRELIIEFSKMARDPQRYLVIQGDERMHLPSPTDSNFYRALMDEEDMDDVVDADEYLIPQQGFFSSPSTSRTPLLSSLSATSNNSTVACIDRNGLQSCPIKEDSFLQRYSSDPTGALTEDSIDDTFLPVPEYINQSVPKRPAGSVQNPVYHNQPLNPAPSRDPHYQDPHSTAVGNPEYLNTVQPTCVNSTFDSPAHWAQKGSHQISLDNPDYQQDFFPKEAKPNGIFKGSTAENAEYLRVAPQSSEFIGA

Usually IC50 stands for the concentration at which inhibition is half-maximal. A low value points to greater potency in that assay. With `C=C(Cl)C(=O)Nc1cc2c(Nc3ccc(F)c(Cl)c3F)ncnc2cc1OCCCN1CCOCC1` [Compound 34, N-[4-(3-chloro-2,4-difluoro-phenylamino)-7-(3-morpholin-4-yl-propoxy)-quinazolin-6-yl]-2-chloro-acrylamide], the IC50 is > 100000 nM in the assay with A431 cell, 5200 nM in assay [1] and 0.65 nM against EGFR tyrosine kinase.
As to `C=C(Cl)C(=O)Nc1cc2c(Nc3ccc(F)c(Cl)c3)ncnc2cc1OCCCN1CCOCC1` [Compound 35, N-[4-(3-chloro-4-fluoro-phenylamino)-7-(3-morpholin-4-yl-propoxy)-quinazolin-6-yl]-2-chloro-acrylamide], the IC50 in the assay on A431 cell was > 100000 nM; in assay [1] it was 8500 nM; on EGFR tyrosine kinase it was 0.97 nM.
Take `C=C(F)C(=O)Nc1cc2c(Nc3ccc(Cl)c(OC)c3)ncnc2cc1OCCCN1CCOCC1` [Compound 37, N-[4-(4-chloro-3-methoxy-phenylamino)-7-(3-morpholin-4-yl-propoxy)-quinazolin-6-yl]-2-fluoro-acrylamide]: the IC50 was > 100000 nM in the assay on A431 cell, 1900 nM in assay [1] and 4.7 nM at EGFR tyrosine kinase.
On the same counts, the results for `C=C(F)C(=O)Nc1cc2c(Nc3ccc(Br)c(Cl)c3F)ncnc2cc1OCCCN1CCOCC1` [Compound 38, N-[4-(4-bromo-3-chloro-2-fluoro-phenylamino)-7-(3-morpholin-4-yl-propoxy)-quinazolin-6-yl]-2-fluoro-acrylamide] are 180 nM, 1100 nM and 0.35 nM.
For the compound `C=C(F)C(=O)Nc1cc2c(Nc3ccc(F)c(Cl)c3)ncnc2cc1OCCCN1CCCCC1` [Compound 40, N-[4-(3-chloro-4-fluoro-phenylamino)-7-(3-piperidin-l-yl-propoxy)-quinazolin-6-yl]-2-fluoro-acrylamide], the IC50 in the assay on A431 cell turned out to be 1300 nM; in assay [1], 3400 nM; at EGFR tyrosine kinase it was 1 nM.
Turning to `C=C(F)C(=O)Nc1cc2c(Nc3ccc(F)c(Cl)c3)ncnc2cc1OCCCN(C)C` [Compound 42, N-[4-(3-chloro-4-fluoro-phenylamino)-7-(3-dimethylamino-propoxy)-quinazolin-6-yl]-2-fluoro-acrylamide], the IC50 in the assay on A431 cell turned out to be 530 nM; in assay [1], 2400 nM; at EGFR tyrosine kinase, 0.55 nM.
In the case of `C=C(F)C(=O)Nc1cc2c(Nc3ccc(F)c(Cl)c3)ncnc2cc1OCCCN1CCCC1` [Compound 43, N-[4-(3-chloro-4-fluoro-phenylamino)-7-(3-pyrrolidin-l-yl-propoxy)-quinazolin-6-yl]-2-fluoro-acrylamide], the results for the IC50 (in the assay with A431 cell; in assay [1]; against EGFR tyrosine kinase) were 1680 nM, 3400 nM and 1.3 nM, respectively.
On to `C=C(F)C(=O)Nc1cc2c(Nc3ccc(F)c(Cl)c3)ncnc2cc1OCCCN1CCN(C)CC1` [Compound 44, N-{4-(3-chloro-4-fluoro-phenylamino)-7-[3-(4-methyl-piperazin-1-yl)-propoxy]-quinazolin-6-yl}-2-fluoro-acrylamide], for which the IC50 in the assay with A431 cell amounted to 530 nM; in assay [1] it was 3700 nM; against EGFR tyrosine kinase it was 0.29 nM.
With `C=C(F)C(=O)Nc1cc2c(Nc3ccc(F)c(Cl)c3F)ncnc2cc1OCC1CCC1` [Compound 47, N-[4-(3-chloro-2,4-difluoro-phenylamino)-7-cyclobutylmethoxy-quinazolin-6-yl]-2-fluoro-acrylamide], the results for the IC50 (with A431 cell; in assay [1]; against EGFR tyrosine kinase) were 14000 nM, 1500 nM and 1.88 nM, respectively.
For the compound `C=C(F)C(=O)Nc1cc2c(Nc3ccc(F)c(Cl)c3F)ncnc2cc1OCC1CC1` [Compound 48, N-[4-(3-chloro-2,4-difluoro-phenylamino)-7-cyclopropylmethoxy-quinazolin-6-yl]-2-fluoro-acrylamide], the IC50 in the assay on A431 cell was found to be 13000 nM; in assay [1], 1800 nM; against EGFR tyrosine kinase, 0.65 nM.
With `C=C(F)C(=O)Nc1cc2c(Nc3ccc(F)c(Cl)c3F)ncnc2cc1O[C@@H]1CCN(C)C1` [Compound 50, (R)-N-[4-(3-chloro-2,4-difluoro-phenylamino)-7-(1-methyl-pyrrolidin-3-yloxy)-quinazolin-6-yl]-2-fluoro-acrylamide], the IC50 in the assay with A431 cell was determined as 15000 nM; in assay [1], 2400 nM; on EGFR tyrosine kinase it was 5.5 nM.
Take `C=C(F)C(=O)Nc1cc2c(Nc3ccc(F)c(Cl)c3F)ncnc2cc1O[C@H]1CCN(C)C1` [Compound 51, (S)-N-[4-(3-chloro-2,4-difluoro-phenylamino)-7-(1-methyl-pyrrolidin-3-yloxy)-quinazolin-6-yl]-2-fluoro-acrylamide]: the IC50 with A431 cell is 20000 nM; in assay [1], 7300 nM; against EGFR tyrosine kinase it was 4.9 nM.
Take `C=C(F)C(=O)Nc1cc2c(Nc3cccc(Br)c3)ncnc2cc1OC` [Compound 52, N-[4-(3-bromo-phenylamino)-7-methoxy-quinazolin-6-yl]-2-fluoro-acrylamide]: the IC50 in the assay on A431 cell stood at 1600 nM; in assay [1], 470 nM; at EGFR tyrosine kinase, 0.22 nM.
`C=C(F)C(=O)Nc1cc2c(Nc3cccc(Br)c3)ncnc2cc1OCC` [Compound 53, N-[4-(3-bromo-phenylamino)-7-ethoxy-quinazolin-6-yl]-2-fluoro-acrylamide]: the IC50 with A431 cell stood at 36000 nM; in assay [1] it was 1000 nM; against EGFR tyrosine kinase, 0.36 nM.
With `C=C(F)C(=O)Nc1cc2c(Nc3cccc(C(F)(F)F)c3)ncnc2cc1OC` [Compound 54, N-[7-methoxy-4-(3-trifluoromethyl-phenylamino)-quinazolin-6-yl]-2-fluoro-acrylamide], the IC50 in the assay on A431 cell was 3800 nM; in assay [1], 13000 nM; at EGFR tyrosine kinase it was 1.1 nM.
As to `C=C(F)C(=O)Nc1cc2c(Nc3cccc(C(F)(F)F)c3)ncnc2cc1OCC` [Compound 55, N-[7-ethoxy-4-(3-trifluoromethyl-phenylamino)-quinazolin-6-yl]-2-fluoro-acrylamide], the IC50 came out at 22000 nM in the assay with A431 cell, 13000 nM in assay [1] and 0.97 nM on EGFR tyrosine kinase.
Regarding `C=C(F)C(=O)Nc1cc2c(Nc3ccc(F)c(Cl)c3)ncnc2cc1OC` [Compound 56, N-[4-(3-chloro-4-fluoro-phenylamino)-7-methoxy-quinazolin-6-yl]-2-fluoro-acrylamide], the concentration for half-maximal inhibition (IC50) in the assay on A431 cell was determined as 2800 nM; in assay [1] it was 510 nM; against EGFR tyrosine kinase, 0.22 nM.
Regarding `C=C(Cl)C(=O)Nc1cc2c(Nc3ccc(F)c(Cl)c3)ncnc2cc1OC` [Compound 57, N-[4-(3-chloro-4-fluoro-phenylamino)-7-methoxy-quinazolin-6-yl]-2-chloro-acrylamide], the IC50 with A431 cell came out at 7500 nM; in assay [1] it was 1300 nM; at EGFR tyrosine kinase, 0.13 nM.
On to `C=C(Cl)C(=O)Nc1cc2c(Nc3cccc(C(F)(F)F)c3)ncnc2cc1OCC` [Compound 58, N-[7-ethoxy-4-(3-trifluoromethyl-phenylamino)-quinazolin-6-yl]-2-chloro-acrylamide], for which the concentration for half-maximal inhibition (IC50) with A431 cell was 27000 nM; in assay [1], 8300 nM; against EGFR tyrosine kinase, 1 nM.
With `C=C(Cl)C(=O)Nc1cc2c(Nc3cccc(Br)c3)ncnc2cc1OCC` [Compound 59, N-[4-(3-bromo-phenylamino)-7-ethoxy-quinazolin-6-yl]-2-chloro-acrylamide], the IC50 in the assay with A431 cell was 10000 nM; in assay [1], 11000 nM; against EGFR tyrosine kinase it was 0.63 nM.
Take `C=C(F)C(=O)Nc1cc2c(Nc3ccc(OCC4CC4)c(Cl)c3)ncnc2cc1OCCCN1CCOCC1` [Compound 61]: the half-maximal inhibitory concentration (IC50) in the assay on A431 cell worked out at 800 nM; in assay [1] it was 1000 nM; against EGFR tyrosine kinase it was 4.5 nM.
